Experimental data from PMC8291587, “Guanidine Derivatives: How Simple Structural Modification of Histamine H3R Antagonists Has Led to the Discovery of Potent Muscarinic M2R/M4R Antagonists” (ACS Chemical Neuroscience, 2021).
Values joined by “and” are separate entries in the source; they are usually repeats but may differ in a detail not shown here. Equal entries are not always repeated.

test system: M2R/M3R; assay: Ex vivo screening of muscarinic M2R/M3R antagonists on isolated guinea pig ileum (methacholine-induced contraction); conditions: methacholine as agonist
Method: Another group of guinea pig intestinal receptors able to regulate smooth muscle contraction is that of the muscarinic receptors, including M2R and M3R. All compounds were tested on the muscarinic receptors using the same animal model. This approach is similar to measuring histamine H1R antagonist activity. Methacholine was used as a receptor agonist, while 1,1-dimethyl-4-diphenylacetoxypiperidinium iodide (4-DAMP) was used as a reference M3R antagonist. As methacholine is not selective according to M2R and M3R, it is not possible to precisely specify which one was responsible for the effect observed on the tissue preparations. Some authors often attribute the results to the minor M3R subtype (gpM2R:M3R = 4:1 or 5:1), which is generally associated with the contractions,[38] but such an overinterpretation may be misleading, as indicated by our further hM1R-hM5R radioligand binding assay results shown in Table 2. […] These findings partially explain the influence of ADS10227 on the contractility of guinea pig ileum following electrical stimulation. […] In subsequent studies, we tried to clarify this.
Male guinea pigs, weighing 300–400 g, were euthanized by a blow to the neck. A 20–30 cm length of the distal ileum, apart from the terminal 5 cm, was rapidly removed and placed in phosphate buffer at room temperature (pH 7.4) containing (mM) NaCl (136.9), KCl (2.6), KH2PO4 (1.47), Na2HPO4 (9.58), and indomethacin (1 × 10^–6 mol/L)). The intraluminal content was rinsed, and the isolated intestine was cut into 1.5–2 cm segments. The preparations were mounted isotonically in a 20 mL organ bath filled with Tyrode’s buffer: composition (mM) NaCl (137), KCl (2.7), MgCl2·6H2O (1.0), CaCl2 (1.8), NaH2PO4·H2O (0.4), NaHCO3 (11.9), glucose (5.61), and indomethacin (3 × 10^–7 mol/L). The solution was continuously bubbled with a 95% O2:5% CO2 mixture and maintained at 37 °C under a constant load of 0.5 g (Hugo Sachs Hebel–Messvorsatz (Tl-2)/HF-modem; Hugo Sachs Elektronik, Hugstetten, Germany) connected to a pen recorder (Kipp & Zonen BD41, Delft, Holland). During an equilibration period of 40 min, Tyrode’s buffer was changed every 10 min. The first cumulative concentration–response curve was determined for methacholine (10 nM to 3 mM) at increasing concentrations spaced by 3- or 3.3-fold. The second to the fourth (or fifth) curves were measured in the presence of an increasing concentration of antagonist (incubation time 20 min). The pA2 values were calculated according to Arunlakshana and Schild.[37] Statistical analysis was carried out with the Students’ t test. In all tests, a p < 0.05 was considered statistically significant.

SMILES | M2R/M3R pA2 gpi ± sem
[H]/N=C(/N)N(CCCCN1CCN(CC2CCC(COc3ccccc3)CC2)CC1)Cc1ccc(C(F)(F)F)cc1 (stereo not drawn) [ADS10239] | 6.46±0.11
N=C(N)N(CCCCN1CCN(C[C@H]2CC[C@@H](COc3ccccc3)CC2)CC1)Cc1ccccc1 [ADS10227, 1-{4-{4-{[4-(phenoxymethyl)cyclohexyl]methyl}piperazin-1-yl}but-1-yl}-1-(benzyl)guanidine] | 6.97±0.09
N=C(N)N(CCCCN1CCN(CCCCCCCOc2ccccc2)CC1)Cc1ccccc1 [ADS1017] | 6.36 and 6.36 ±0.10
